Test results taken from patent US20080161273A1, “Method of Using Adapalene in Acne Maintenance Therapy” (GALDERMA RESEARCH & DEVELOPMENT, priority 2004, published 2008).
Like-named read-outs stand apart in the source and are kept apart here.

Experiments:
[1] = 16-week maintenance therapy study: safety, local facial tolerability, adverse events, discontinuation; assay type: in vivo, human
Source text: The efficacy and safety of the adapalene gel 0.1% (Galderma Laboratories, LP, Ft. Worth, Tex.) as a maintenance therapy were compared to gel vehicle in a randomized, multicenter, vehicle-controlled, investigator-blind, parallel group study conducted at 34 centers in the United States between Nov. 13, 2003 and May 25, 2004. This study was designed to set a high threshold for achieving success. […] These subjects were re-randomized consecutively in a 1:1 ratio to receive either adapalene gel 0.1% or adapalene gel vehicle once-daily in the evening for an additional 16 weeks. Subjects were stratified by the treatment assignment received in the previous study using an interactive voice responsive system. The randomization schedule remained blinded from those involved in the clinical conduct of the study. The integrity of the blinding was ensured by packaging the topical medication in identical tubes and requiring a third party other than the investigator/evaluator to dispense the medication.
Safety and tolerability were assessed through evaluations of local facial tolerability and adverse events. At each visit, the investigator rated erythema, scaling, dryness, and stinging/burning on a scale ranging from 0 (none) to 3 (severe). Mean scores at each postbaseline visit and worst score (worst observation recorded for a subject during the post-baseline period) were recorded. Adverse events were also evaluated at each visit.
Three study populations were analyzed. The safety population was defined as all patients randomized and treated at least once. The intent-to-treat (ITT) population included all randomized subjects who were dispensed study medication. The per-protocol (PP) population included all randomized subjects without any major protocol deviations.

[2] = test system: acne vulgaris; test: 16-week maintenance therapy study after adapalene-doxycycline combination therapy: efficacy (maintenance rate, lesion counts, global severity); assay type: in vivo, human
Source text: The efficacy and safety of the adapalene gel 0.1% (Galderma Laboratories, LP, Ft. Worth, Tex.) as a maintenance therapy were compared to gel vehicle in a randomized, multicenter, vehicle-controlled, investigator-blind, parallel group study conducted at 34 centers in the United States between Nov. 13, 2003 and May 25, 2004. This study was designed to set a high threshold for achieving success. […] These subjects were re-randomized consecutively in a 1:1 ratio to receive either adapalene gel 0.1% or adapalene gel vehicle once-daily in the evening for an additional 16 weeks. Subjects were stratified by the treatment assignment received in the previous study using an interactive voice responsive system. The randomization schedule remained blinded from those involved in the clinical conduct of the study. The integrity of the blinding was ensured by packaging the topical medication in identical tubes and requiring a third party other than the investigator/evaluator to dispense the medication. Exclusion criteria prohibited enrollment of subjects with acne requiring isotretinoin therapy or other dermatologic conditions requiring interfering treatment. Women were excluded if they were pregnant, nursing, or planning a pregnancy as were men with facial hair that would interfere with the assessments. Subjects were provided Cetaphil® daily facial moisturizer SPF 15 (Galderma Laboratories, LP., Ft Worth, Tex.) to use as needed for the symptomatic relief of skin dryness or irritation. Evaluations for this study occurred at baseline and at weeks 4, 8, 12, and 16. The final visit from the previous 12-week combination study served as the baseline visit for this 16-week maintenance study. The primary efficacy variable was the failure rate at week 16, defined as the percentage of subjects unable to maintain 50% of total lesion count improvement from the previous 12-week combination therapy study (e.g., a subject entering the maintenance phase after having lost 40 lesions in the combination study was considered as a failure if the lesion count at the end of the maintenance study was increased by more than 20 lesions). Data from this assessment is presented graphically herein as a maintenance rate, which is simply 100% minus the failure rate. Secondary efficacy variables included lesion counts (total, inflammatory and non inflammatory), failure rates for inflammatory and non-inflammatory lesions, as well as global severity and global improvement of the disease. At the last visit, subject satisfaction was assessed via a 5-question survey. All data analyses were carried out according to a pre-established analysis plan. A sample size of 113 subjects per group was deemed necessary to detect a statistically significant difference in failure rate between treatment groups based on the use of a 2-tailed test with […] and a power of 90%; an assumption of a 15% efficacy difference between the 2 treatment groups; and a dropout rate of 10%. Three study populations were analyzed. The safety population was defined as all patients randomized and treated at least once. The intent-to-treat (ITT) population included all randomized subjects who were dispensed study medication. The per-protocol (PP) population included all randomized subjects without any major protocol deviations. […] Analyses for efficacy were performed on week 16 data for the ITT population and the PP population. Last observation carried forward (LOCF) methodology was used to account for missing data for the ITT population analysis (lesion counts). In addition, all subjects with missing data at week 16 were considered failures for the failure rate analysis (worst case). Age was tested at baseline with the analysis of variance (ANOVA) model with treatment, center, and their interaction as factors. All other variables were analyzed by using the Cochran-Mantel-Haenzsel (CMH) test controlling for “analysis center” and previous treatment for both the ITT and PP populations. […]

[3] = applied as monotherapy, versus tazarotene and tretinoin formulations, cited from earlier work
[4] = 5-question subject satisfaction survey at last visit of the maintenance study; assay type: in vivo, human; conditions: P=0.94 vs vehicle
Source text: The primary efficacy variable was the failure rate at week 16, defined as the percentage of subjects unable to maintain 50% of total lesion count improvement from the previous 12-week combination therapy study (e.g., a subject entering the maintenance phase after having lost 40 lesions in the combination study was considered as a failure if the lesion count at the end of the maintenance study was increased by more than 20 lesions). Data from this assessment is presented graphically herein as a maintenance rate, which is simply 100% minus the failure rate. Secondary efficacy variables included lesion counts (total, inflammatory and non inflammatory), failure rates for inflammatory and non-inflammatory lesions, as well as global severity and global improvement of the disease. At the last visit, subject satisfaction was assessed via a 5-question survey.

COc1ccc(-c2ccc3cc(C(=O)O)ccc3c2)cc1C12CC3CC(CC(C3)C1)C2 [adapalene, 6-[3-(1-adamantyl)-4-methoxyphenyl]-2-naphtoic acid]
overall safety and tolerability ([1]; 16-week study): safe and well tolerated
subjects experiencing adverse events ([1]; 16-week study): 25%
subjects with treatment-related adverse events (percentage) ([1]; 16-week study): 2.4%
subjects with treatment-related adverse events (number) ([1]; 16-week study, 126 subjects in group): 3 subjects
mean worst score for each local cutaneous tolerability variable, large majority of subjects ([1]; scale none, mild, moderate, severe): none or mild
lesion counts during the course of the study versus baseline ([2]; 16 weeks, vehicle group gradually increased): remained stable or decreased
subjects "clear" or "almost clear" in global severity assessment ([2]; P=0.005 for distribution of severity scores vs vehicle): 27%
global assessment of improvement versus vehicle ([2]; P=0.01): significant advantages
total lesion counts relative to vehicle ([2]; end point week 16, ITT, LOCF, P=0.005): significantly lower
inflammatory lesion counts relative to vehicle ([2]; end point week 16, ITT, LOCF, P=0.01): significantly lower
noninflammatory lesion counts relative to vehicle ([2]; end point week 16, ITT, LOCF, P=0.02): significantly lower
maintenance rate, total lesion counts (subjects maintaining at least 50% of improvement from previous combination study) ([2]; week 16, ITT, worst case (missing data = failure), once-daily for 16 weeks, P<0.001 vs vehicle): 75%
tolerability / cutaneous irritation profile versus other topical retinoids [3]: more favorable cutaneous irritation profile
tolerability / cutaneous irritation profile versus other topical retinoids ([3]; listed as Adapalene): more favorable tolerability profile
subjects not bothered by side effects [4]: 90%
